In data set [1] the target is T1, Mannose-6-phosphate isomerase (Homo sapiens, UniProt P34949).
T1 sequence (P34949 whole entry): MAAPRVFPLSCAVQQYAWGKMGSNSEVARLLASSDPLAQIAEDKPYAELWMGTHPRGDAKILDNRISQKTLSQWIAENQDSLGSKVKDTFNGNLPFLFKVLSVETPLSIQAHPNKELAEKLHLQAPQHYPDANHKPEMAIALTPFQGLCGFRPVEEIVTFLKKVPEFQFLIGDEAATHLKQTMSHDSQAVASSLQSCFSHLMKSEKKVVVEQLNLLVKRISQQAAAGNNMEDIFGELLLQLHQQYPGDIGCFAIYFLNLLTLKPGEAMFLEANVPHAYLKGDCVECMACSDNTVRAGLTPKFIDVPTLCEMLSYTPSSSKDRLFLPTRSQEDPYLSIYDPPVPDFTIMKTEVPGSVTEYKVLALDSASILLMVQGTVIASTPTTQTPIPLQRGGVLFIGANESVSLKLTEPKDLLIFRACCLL
Put plainly: human PMI inhibitors, high substrate, primary screen, biochemical, fluorescence intensity, high mannose 6-phosphate (AID 1220).

In data set [2] the target is Lysine-specific demethylase 4A (Homo sapiens, UniProt O75164). Put plainly: JMJD2A histone demethylase inhibitors, dose response, selectivity assay for GASC-1 inhibitor project, biochemical, DELFIA europium, cherry-picked samples (AID 488840).
Data set [3] has as its target Lysine-specific demethylase 4C (Homo sapiens, UniProt Q9H3R0). Put plainly: GASC-1 (JMJD2C) histone demethylase inhibitors, dose response, biochemical, DELFIA europium, cherry-picked samples (AID 488835). Format: functional.
The nature of data set [4]: Luminescence Cell-Based/Microorganism Confirmation at Dose of Inhibitors of Trypanosoma cruzi Infection. [Related pubchem assays: 1885, 1968 ]. Format: functional.
Data set [5] in a line: Luminescence Cell-Based Secondary HTS screen to identify cytotoxic compounds of NIH3T3 cells. [Related pubchem assays: 1885, 1968 ]. It is filed as functional.
Data set [6] is described as follows: inhibitors of Trypanosoma cruzi host-cell infection, confirmation, beta-gal luminescence, NIH3T3 host cells (AID 2630). Format: functional, cell-based. The conditions noted are these: Mus musculus.
The target in another data set is Galanin receptor type 2 (Homo sapiens, UniProt O43603). Put plainly: Dose Response cell-based high-throughput screening assay to identify antagonists of galanin receptor 2 (GALR2). [Related pubchem assays: 828, 866 ]. Format: functional.
Sequence of Galanin receptor type 2 (O43603 whole entry): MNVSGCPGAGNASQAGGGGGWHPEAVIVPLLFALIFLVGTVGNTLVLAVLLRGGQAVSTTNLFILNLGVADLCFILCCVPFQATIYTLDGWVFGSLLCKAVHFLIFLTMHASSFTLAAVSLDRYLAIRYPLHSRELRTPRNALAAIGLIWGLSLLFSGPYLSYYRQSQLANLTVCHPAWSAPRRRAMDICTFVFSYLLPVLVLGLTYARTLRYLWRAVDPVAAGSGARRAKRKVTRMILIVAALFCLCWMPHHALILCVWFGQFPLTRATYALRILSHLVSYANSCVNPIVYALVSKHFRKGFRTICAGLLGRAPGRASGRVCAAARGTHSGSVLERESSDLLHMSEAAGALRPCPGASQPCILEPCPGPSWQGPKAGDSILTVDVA
In a further data set the test system is Jurkat. Put plainly: antigen receptor-induced NF-kB inhibitors, dose response, Jurkat, luciferase reporter, luminescence, B- and T-cell (AID 489004).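 Further: NF-kB luciferase reporter Jurkat cells stimulated with PMA plus ionomycin.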 Format: functional, cell-based. The settings on record: Homo sapiens.
Data set [7] is described as follows: cytotoxicity in HEK-293T NF-kB-Luc cells, dose response, cytotoxicity control for B/T-cell NF-kB inhibitor project, cell-based, uHTS hits (AID 489019).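 Further: IC50 reflects cytotoxicity as loss of cell viability.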 Format: functional.
In the next data set the target is Galanin receptor type 3 (Homo sapiens, UniProt O60755). Put plainly: Fluorescence-based cell-based primary high throughput dose response assay to identify antagonists of the Galanin Receptor 3 (GalR3). It is filed as functional.
The nature of another data set: cells. The settings on record: HEK-CNG. It is filed as functional, cell-based.
For data set [8], the target named is T2, COUP transcription factor 2 (Homo sapiens, UniProt P24468).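 Further: HEK293 cells transiently cotransfected with COUP-TFII expression vector and reporter; luciferase reporter luminescence driven by COUP-TFII from the pX2-168 reporter plasmid.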
T2 sequence (P24468 whole entry): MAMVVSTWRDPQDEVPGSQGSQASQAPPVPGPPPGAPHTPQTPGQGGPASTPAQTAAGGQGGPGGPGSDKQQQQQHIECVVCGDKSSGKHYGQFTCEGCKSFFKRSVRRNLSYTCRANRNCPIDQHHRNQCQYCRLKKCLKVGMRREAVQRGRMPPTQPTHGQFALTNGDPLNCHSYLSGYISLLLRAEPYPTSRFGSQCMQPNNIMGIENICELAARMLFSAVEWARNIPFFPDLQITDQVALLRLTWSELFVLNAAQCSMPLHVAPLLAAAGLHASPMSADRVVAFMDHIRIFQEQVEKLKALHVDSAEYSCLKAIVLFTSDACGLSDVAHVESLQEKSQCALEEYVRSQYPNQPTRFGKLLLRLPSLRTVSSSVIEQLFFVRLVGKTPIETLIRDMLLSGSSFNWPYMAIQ
Put plainly: Luminescence-based cell-based high throughput dose response assay to identify inhibitors of COUP-TFII (NR2F2). It is filed as functional.

The next data set has as its target Beta-galactosidase (Escherichia coli, UniProt Q8VNN2). Put plainly: PubChem AID 485352. Format: functional.
In data set [9] the target is T3, Type-1 angiotensin II receptor (Homo sapiens, UniProt P30556).
T3 sequence (P30556 whole entry): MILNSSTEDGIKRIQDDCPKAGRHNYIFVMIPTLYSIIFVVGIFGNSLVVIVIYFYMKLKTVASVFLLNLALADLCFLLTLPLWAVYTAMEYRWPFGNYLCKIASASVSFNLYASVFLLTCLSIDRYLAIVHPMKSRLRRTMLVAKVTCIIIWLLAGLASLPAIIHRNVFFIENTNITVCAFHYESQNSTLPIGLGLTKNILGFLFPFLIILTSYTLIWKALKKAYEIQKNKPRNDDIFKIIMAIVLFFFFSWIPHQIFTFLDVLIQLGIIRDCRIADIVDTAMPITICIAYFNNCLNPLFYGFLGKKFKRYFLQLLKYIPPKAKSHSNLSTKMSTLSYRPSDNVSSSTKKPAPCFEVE
Put plainly: AT1 receptor antagonists, dose response, selectivity assay for APJ receptor antagonist project, cell-based, uHTS hits (AID 463214).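 Further: antagonist potency against angiotensin II stimulated AT1 response.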 Format: functional.

Data set [10] can be described thus: Shn3 3'UTR reporter inhibitors, dose response, cell-based, Clone20 osteoblasts, firefly luciferase, cherry-picked (AID 624132).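 Further: firefly luciferase luminescence from reporter carrying the Shn3 3'UTR in osteoblasts.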 Format: functional.
Data set [11] in a line: HepG2 cell cytotoxicity, dose response, cytotoxicity control for Shn3 inhibitor project, CellTiter-Glo, cherry-picked (AID 624134). Format: functional, cell-based.
A short description of data set [12]: Fluorescence-based cell-based high throughput dose response assay for inhibitors of the interaction of nucleotide-binding oligomerization domain containing 2 (NOD2) and the receptor-interacting serine-threonine kinase 2 (RIPK2). It is filed as functional. The conditions noted are these: Homo sapiens.
The subject of data set [13] is HEK293. Put plainly: cells. The conditions noted are these: Homo sapiens.
Data set [14] has as its system HEK293. Put plainly: cells. The conditions noted are these: Homo sapiens. This is another data set of the same source.
For data set [15], the system named is HEK293. Put plainly: NOD1 signaling inhibitors, primary screen, cell-based, luminescence, uHTS (AID 1578). It is filed as functional. The settings on record: Homo sapiens.
In data set [16] the test system is HEK293. Put plainly: cells. It is filed as functional, cell-based. The conditions noted are these: Homo sapiens.
For data set [17], the system named is HEK293. Put plainly: cells. The conditions noted are these: Homo sapiens. It is filed as functional, cell-based. This is another data set of the same source.
For data set [18], the target named is T4, Nucleotide-binding oligomerization domain-containing protein 2 (Homo sapiens, UniProt Q9HC29). Put plainly: NOD2 signaling inhibitors, cell-based, luminescence, uHTS, HEK293 (AID 1566). Format: functional.
T4 sequence (Q9HC29 whole entry, the tested form may be a part): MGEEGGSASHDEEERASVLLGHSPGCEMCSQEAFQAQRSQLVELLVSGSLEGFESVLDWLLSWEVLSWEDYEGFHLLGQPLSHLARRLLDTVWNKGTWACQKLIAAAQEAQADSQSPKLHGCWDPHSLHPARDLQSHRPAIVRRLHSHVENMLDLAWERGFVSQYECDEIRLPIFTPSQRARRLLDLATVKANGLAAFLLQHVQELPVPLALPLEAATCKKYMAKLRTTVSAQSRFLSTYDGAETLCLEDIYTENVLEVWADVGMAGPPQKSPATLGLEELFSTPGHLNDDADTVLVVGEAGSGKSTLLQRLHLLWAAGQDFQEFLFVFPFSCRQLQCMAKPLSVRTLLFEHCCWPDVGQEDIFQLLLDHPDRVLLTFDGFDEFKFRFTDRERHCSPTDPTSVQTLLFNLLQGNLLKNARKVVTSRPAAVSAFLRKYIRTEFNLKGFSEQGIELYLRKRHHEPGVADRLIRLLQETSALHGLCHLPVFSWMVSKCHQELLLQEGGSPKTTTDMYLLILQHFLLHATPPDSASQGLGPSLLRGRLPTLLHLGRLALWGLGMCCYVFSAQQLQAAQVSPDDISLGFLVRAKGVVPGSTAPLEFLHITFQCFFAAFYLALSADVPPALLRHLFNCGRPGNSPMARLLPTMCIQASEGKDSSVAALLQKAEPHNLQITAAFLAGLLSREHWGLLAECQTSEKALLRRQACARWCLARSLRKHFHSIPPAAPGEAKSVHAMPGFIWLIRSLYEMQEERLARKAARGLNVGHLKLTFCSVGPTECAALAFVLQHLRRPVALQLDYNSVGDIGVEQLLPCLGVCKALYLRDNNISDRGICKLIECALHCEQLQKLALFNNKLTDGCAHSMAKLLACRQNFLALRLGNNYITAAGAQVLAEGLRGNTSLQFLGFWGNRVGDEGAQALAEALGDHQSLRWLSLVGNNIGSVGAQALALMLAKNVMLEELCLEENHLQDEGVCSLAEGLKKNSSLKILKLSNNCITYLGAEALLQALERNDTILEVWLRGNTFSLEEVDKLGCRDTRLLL
Data set [19] has as its system HEK293. Put plainly: NOD2 signaling inhibitors in MDP-stimulated cells, cell-based, uHTS, luminescence (AID 2001). It is filed as functional. The settings on record: Homo sapiens.
In data set [20] the test system is HEK293. Put plainly: cells. Format: functional, cell-based. The conditions noted are these: Homo sapiens. This is another data set of the same source.
For a further data set, the target named is Tumor necrosis factor (Homo sapiens, UniProt P01375). Put plainly: TNFa-triggered NF-kB activation inhibitors, SAR follow-up, cell-based, revised (AID 2337). It is filed as functional.
Sequence of Tumor necrosis factor (P01375 whole entry, the tested form may be a part): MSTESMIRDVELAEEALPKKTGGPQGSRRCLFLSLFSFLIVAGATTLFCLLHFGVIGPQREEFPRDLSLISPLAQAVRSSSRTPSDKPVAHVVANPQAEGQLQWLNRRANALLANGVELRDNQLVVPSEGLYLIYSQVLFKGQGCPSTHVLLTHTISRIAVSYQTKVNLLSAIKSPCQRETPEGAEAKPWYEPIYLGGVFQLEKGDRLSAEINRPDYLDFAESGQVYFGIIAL
The target of data set [21] is T5, Nucleotide-binding oligomerization domain-containing protein 1 (Homo sapiens, UniProt Q9Y239).
T5 sequence (Q9Y239 whole entry): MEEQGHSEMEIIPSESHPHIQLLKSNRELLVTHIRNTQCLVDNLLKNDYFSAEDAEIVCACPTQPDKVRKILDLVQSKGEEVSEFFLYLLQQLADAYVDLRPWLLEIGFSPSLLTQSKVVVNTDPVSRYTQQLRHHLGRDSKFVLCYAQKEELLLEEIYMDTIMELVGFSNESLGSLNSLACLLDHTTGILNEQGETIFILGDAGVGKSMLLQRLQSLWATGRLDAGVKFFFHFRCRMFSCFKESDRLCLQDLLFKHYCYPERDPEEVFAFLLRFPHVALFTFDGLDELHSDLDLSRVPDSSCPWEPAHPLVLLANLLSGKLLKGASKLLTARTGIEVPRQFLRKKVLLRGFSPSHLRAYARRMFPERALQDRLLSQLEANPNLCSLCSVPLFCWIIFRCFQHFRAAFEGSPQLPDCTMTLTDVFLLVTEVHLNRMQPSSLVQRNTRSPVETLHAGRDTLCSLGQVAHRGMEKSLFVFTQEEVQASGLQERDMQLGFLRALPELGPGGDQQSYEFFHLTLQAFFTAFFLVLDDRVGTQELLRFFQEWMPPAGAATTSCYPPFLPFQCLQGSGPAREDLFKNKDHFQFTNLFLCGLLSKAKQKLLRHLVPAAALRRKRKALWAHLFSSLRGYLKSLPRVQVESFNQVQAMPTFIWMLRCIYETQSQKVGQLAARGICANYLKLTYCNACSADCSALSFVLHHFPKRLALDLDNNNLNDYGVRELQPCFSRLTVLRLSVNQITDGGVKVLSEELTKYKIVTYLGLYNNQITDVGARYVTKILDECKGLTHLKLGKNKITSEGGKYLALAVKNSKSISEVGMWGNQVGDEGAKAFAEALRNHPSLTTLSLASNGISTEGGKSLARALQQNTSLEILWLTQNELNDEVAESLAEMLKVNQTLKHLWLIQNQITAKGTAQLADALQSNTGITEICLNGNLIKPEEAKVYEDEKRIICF
Put plainly: NOD1 signaling inhibitors, SAR follow-up, revised (AID 2333). It is filed as functional.

Data set [22] has as its target T4, Nucleotide-binding oligomerization domain-containing protein 2. Put plainly: PubChem AID 2334. It is filed as functional.
For data set [23], the system named is HEK293. Put plainly: cells. The conditions noted are these: Homo sapiens. The source holds these as a separate data set.
A further data set addresses Cytochrome P450 2C9 (Homo sapiens, UniProt P11712).
The next data set has as its target Cytochrome P450 2D6 (Homo sapiens, UniProt P10635).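 Further: CYP2D6 member of a cytochrome P450 panel assay.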
A further data set addresses CAAX prenyl protease 2 (Saccharomyces cerevisiae S288c, UniProt Q03530). It is filed as biochemical.
The target of another data set is CAAX prenyl protease 1 (Saccharomyces cerevisiae S288c, UniProt P47154). Put plainly: Ste24 protease inhibitors, dose response, biochemical, S. cerevisiae, plate reader, cherry-pick (AID 488815).
Sequence of CAAX prenyl protease 1 (P47154 whole entry): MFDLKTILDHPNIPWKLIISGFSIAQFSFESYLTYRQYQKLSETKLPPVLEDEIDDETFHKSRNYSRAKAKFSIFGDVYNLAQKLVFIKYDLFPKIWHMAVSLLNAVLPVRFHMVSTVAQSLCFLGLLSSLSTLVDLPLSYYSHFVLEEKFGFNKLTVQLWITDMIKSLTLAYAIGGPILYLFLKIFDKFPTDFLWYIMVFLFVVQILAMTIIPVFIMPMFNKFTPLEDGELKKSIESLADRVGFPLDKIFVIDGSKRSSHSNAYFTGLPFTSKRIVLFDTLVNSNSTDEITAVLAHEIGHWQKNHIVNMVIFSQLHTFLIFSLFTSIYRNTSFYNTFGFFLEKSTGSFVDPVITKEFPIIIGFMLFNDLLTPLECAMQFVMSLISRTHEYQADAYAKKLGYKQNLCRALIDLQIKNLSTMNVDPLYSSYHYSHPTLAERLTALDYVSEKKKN

The source made the active and inactive calls. A value given as a limit tells only on which side of the number the result lay.

Sequence of Beta-galactosidase (Q8VNN2 whole entry): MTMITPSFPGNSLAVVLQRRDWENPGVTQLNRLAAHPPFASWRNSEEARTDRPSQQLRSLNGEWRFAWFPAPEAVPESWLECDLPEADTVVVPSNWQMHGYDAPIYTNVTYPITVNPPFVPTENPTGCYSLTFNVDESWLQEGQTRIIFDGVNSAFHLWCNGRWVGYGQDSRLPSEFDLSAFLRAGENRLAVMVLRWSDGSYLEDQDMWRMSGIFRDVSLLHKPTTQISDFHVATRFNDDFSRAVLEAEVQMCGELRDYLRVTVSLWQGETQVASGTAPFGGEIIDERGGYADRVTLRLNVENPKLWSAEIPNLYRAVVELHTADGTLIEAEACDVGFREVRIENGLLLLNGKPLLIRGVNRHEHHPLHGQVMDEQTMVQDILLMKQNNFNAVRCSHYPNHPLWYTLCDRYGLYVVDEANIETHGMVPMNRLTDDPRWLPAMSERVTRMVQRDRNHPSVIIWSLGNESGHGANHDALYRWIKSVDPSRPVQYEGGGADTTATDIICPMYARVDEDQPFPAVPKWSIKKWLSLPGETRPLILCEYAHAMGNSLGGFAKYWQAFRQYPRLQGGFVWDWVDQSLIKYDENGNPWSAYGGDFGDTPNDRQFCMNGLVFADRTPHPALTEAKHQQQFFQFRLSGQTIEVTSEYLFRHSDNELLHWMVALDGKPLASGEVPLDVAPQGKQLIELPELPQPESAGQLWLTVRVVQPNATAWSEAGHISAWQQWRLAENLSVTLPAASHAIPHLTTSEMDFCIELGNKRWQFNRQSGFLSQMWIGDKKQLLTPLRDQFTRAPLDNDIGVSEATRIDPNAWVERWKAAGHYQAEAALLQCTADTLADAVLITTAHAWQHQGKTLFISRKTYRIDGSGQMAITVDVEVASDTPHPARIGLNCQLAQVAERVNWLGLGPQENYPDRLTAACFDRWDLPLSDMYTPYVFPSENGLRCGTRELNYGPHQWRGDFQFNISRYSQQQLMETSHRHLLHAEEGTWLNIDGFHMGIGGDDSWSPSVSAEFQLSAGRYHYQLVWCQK
Sequence of Lysine-specific demethylase 4C (Q9H3R0 whole entry): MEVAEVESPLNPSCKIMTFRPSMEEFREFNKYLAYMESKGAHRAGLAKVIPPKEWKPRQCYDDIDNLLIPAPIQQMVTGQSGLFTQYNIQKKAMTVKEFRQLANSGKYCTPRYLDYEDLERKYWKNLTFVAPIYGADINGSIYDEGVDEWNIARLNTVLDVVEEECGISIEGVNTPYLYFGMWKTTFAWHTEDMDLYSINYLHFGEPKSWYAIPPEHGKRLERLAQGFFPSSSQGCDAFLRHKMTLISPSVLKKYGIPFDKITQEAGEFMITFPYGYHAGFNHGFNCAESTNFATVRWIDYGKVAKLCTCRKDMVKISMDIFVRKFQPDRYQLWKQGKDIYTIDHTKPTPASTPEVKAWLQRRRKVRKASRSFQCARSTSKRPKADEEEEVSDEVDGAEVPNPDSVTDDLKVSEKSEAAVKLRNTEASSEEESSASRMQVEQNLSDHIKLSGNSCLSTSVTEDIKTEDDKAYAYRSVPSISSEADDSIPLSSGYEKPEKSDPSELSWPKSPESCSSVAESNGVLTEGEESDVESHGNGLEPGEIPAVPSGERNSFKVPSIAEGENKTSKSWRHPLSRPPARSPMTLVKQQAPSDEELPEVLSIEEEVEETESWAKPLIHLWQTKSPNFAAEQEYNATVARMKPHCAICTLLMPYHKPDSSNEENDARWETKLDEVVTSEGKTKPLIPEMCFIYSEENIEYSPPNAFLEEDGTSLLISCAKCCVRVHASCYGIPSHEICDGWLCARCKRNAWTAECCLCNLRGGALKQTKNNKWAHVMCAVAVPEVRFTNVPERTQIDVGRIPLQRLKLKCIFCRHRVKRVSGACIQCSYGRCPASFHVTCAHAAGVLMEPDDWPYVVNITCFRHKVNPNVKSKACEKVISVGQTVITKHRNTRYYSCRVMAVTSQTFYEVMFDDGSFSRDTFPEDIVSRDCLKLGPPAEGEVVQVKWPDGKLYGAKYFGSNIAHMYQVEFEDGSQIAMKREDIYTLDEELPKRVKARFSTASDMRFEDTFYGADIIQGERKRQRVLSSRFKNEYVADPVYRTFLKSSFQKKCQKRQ
Sequence of CAAX prenyl protease 2 (Q03530 whole entry): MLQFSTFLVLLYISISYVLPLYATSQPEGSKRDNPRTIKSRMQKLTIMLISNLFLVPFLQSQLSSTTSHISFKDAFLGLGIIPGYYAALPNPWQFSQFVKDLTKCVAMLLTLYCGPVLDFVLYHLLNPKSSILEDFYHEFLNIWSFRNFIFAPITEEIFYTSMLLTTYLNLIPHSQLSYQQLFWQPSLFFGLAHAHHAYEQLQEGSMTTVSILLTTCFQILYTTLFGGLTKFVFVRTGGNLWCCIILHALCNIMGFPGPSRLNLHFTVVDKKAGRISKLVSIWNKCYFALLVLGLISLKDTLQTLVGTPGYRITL
Sequence of Cytochrome P450 2C9 (P11712 whole entry): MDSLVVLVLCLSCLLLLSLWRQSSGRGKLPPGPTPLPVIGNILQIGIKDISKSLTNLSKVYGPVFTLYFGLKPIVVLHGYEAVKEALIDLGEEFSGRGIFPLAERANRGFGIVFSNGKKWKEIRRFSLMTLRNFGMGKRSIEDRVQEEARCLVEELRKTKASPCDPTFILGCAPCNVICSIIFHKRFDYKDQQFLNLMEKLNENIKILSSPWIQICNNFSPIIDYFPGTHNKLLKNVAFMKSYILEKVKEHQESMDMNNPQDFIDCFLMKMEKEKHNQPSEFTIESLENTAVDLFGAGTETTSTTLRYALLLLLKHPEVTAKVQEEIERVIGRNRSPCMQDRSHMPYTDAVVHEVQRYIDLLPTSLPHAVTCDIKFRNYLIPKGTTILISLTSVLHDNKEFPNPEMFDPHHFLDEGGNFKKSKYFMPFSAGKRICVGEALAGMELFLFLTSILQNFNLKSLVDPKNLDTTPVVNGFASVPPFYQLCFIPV

With `CCOC(=O)C1=C(C)NC(=O)NC1c1c(C)nn(-c2ccccc2)c1Cl` (stereo not drawn), the IC50 in data set [1] was 5.4 µM (active). Moreover, the results for the concentration at half-maximal activity (AC50) in [2] and in data set [3] were 8.63 µM (active) and 1.22 µM (active), respectively.
As for `CCc1ccc2nc(N(CCN(C)C)C(=O)c3ccc4ncsc4c3)sc2c1`, the EC50 in data set [4] is 0.176 µM (active); in [5], > 195 µM (inconclusive); in [6], 0.176 µM (active).
As for `O=C(CSc1nnnn1C1CC2CCC1C2)Nc1ccnc2ccccc12` (stereo not drawn), the IC50 is > 42 µM (not active) on Galanin receptor type 2; 61.4 µM (inactive) with Jurkat; 45.1 µM (inactive) in data set [7]; 0.0869 µM (active) on Galanin receptor type 3; 0.568 µM (active) in data set [8]. Also, the EC50 in “cells” is > 29.9 µM (inactive).
For the molecule `Cc1cccc(C(=O)Nc2ccc(C(=O)/C=C/c3ccncc3)cc2)c1`, the EC50 was > 40 µM (inactive) on Beta-galactosidase, > 59.6 µM (inactive) in the data set on HEK293 [13] and > 59.6 µM (inactive) in the data set with HEK293 [14]. Also, the results for the half-inhibitory concentration (IC50) in data set [9] and in [12] were 9.71 µM (active) and 3.51 µM (active), respectively. Besides, the concentration at half-maximal activity (AC50) was 3.41 µM (active) in data set [10] and 36.4 µM (active) in [11].
On to `COc1ccc(NC(C)=O)cc1S(=O)(=O)Nc1ccc(OCc2ccccc2)cc1`, for which the EC50 is 13.7 µM (active) in the data set on HEK293 [15] and 12.3 µM (active) in data set [18]. For the same molecule, the IC50 with HEK293 [16] was > 20 µM (inactive); in the data set on HEK293 [17], > 20 µM (inactive); in the data set on HEK293 [19], > 20 µM (inactive); in the data set with HEK293 [20], > 20 µM (inactive); on Tumor necrosis factor, 18 µM (active); in data set [21], 12.7 µM (active). Also, the results for the 50% inhibitory concentration (IC50) (in data set [22]; in the data set with HEK293 [23]) were 16.6 µM (active) and > 20 µM (inactive), respectively.
With `O=[N+]([O-])c1ccc(N2CCOCC2)nc1`, the AC50 was 7.94 µM (inconclusive) at Cytochrome P450 2C9 and “inconclusive” on Cytochrome P450 2D6.
Regarding `Cc1ccc2c(C)c(C(=O)N(Cc3ccc(F)cc3)C3CCS(=O)(=O)C3)oc2c1` (stereo not drawn), the values for the AC50 on CAAX prenyl protease 2 and on CAAX prenyl protease 1 were > 100 µM (inactive) and 26.5 µM (active), respectively.

Values taken from ChEMBL document CHEMBL1201862, “PubChem BioAssay data set” (2004).
